Results on 27 compounds are retold here after patent publication US20200187502A1, “MICROBIOCIDAL OXADIAZOLE DERIVATIVES” (SYNGENTA PARTICIPATIONS AG, priority 2017, published 2020).

The test system of the first test is Puccinia recondita f. Sp. Tritici. The experiment in a line: Fungicidal activity, wheat leaf disc preventative (brown rust). The class given is in vivo. To be noted: foliar, 200 ppm in the applied formulation, wheat leaf segments cv. Kanzler, compared to untreated control, 7 to 9 days after application, read-out: disease control. The procedure:
Leaf disks or leaf segments of various plant species are cut from plants grown in a greenhouse. The cut leaf disks or segments are placed in multiwell plates (24-well format) onto water agar. The leaf disks are sprayed with a test solution before (preventative) or after (curative) inoculation. Compounds to be tested are prepared as DMSO solutions (max. 10 mg/ml) which are diluted to the appropriate concentration with 0.025% Tween20 just before spraying. The inoculated leaf disks or segments are incubated under defined conditions (temperature, relative humidity, light, etc.) according to the respective test system. A single evaluation of disease level is carried out 3 to 14 days after inoculation, depending on the pathosystem. Percent disease control relative to the untreated check leaf disks or segments is then calculated.
Wheat leaf segments cv. Kanzler were placed on agar in multiwell plates (24-well format) and sprayed with the formulated test compound diluted in water. The leaf disks were inoculated with a spore suspension of the fungus 1 day after application. The inoculated leaf segments were incubated at 19° C. and 75% relative humidity (rh) under a light regime of 12 hours light/12 hours darkness in a climate cabinet and the activity of a compound was assessed as percent disease control compared to untreated when an appropriate level of disease damage appears in untreated check leaf segments (7 to 9 days after application).
The following compounds at 200 ppm in the applied formulation give at least 80% disease control in this test when compared to untreated control leaf disks under the same conditions, which show extensive disease development.
`O=C(C1CCC1)N(Cc1ccc(-c2noc(C(F)(F)F)n2)s1)C1CC1` [Compound 5.38, N-cyclopropyl-N-[[5-[5-(trifluoromethyl)-1,2,4-oxadiazol-3-yl]-2-thienyl]methyl]cyclobutanecarboxamide]: the pest or weed control at 200 ppm was ≥ 80%.

`CCCCS(=O)(=O)N(C)Cc1ccc(-c2noc(C(F)(F)F)n2)s1` [Compound 6.24, N-methyl-N-[[5-[5-(trifluoromethyl)-1,2,4-oxadiazol-3-yl]-2-thienyl]methyl]butane-1-sulfonamide]: the pest or weed control at 200 ppm was ≥ 80%.

For `O=S(=O)(c1ccccc1)N(Cc1ccc(-c2noc(C(F)(F)F)n2)s1)C1CC1` [Compound 6.36, N-cyclopropyl-N-[[5-[5-(trifluoromethyl)-1,2,4-oxadiazol-3-yl]-2-thienyl]methyl]benzenesulfonamide], the pest or weed control at 200 ppm is ≥ 80%.

With `CN(Cc1ccc(-c2noc(C(F)(F)F)n2)s1)S(=O)(=O)c1ccccc1` [Compound 6.26, N-methyl-N-[[5-[5-(trifluoromethyl)-1,2,4-oxadiazol-3-yl]-2-thienyl]methyl]benzenesulfonamide], the pest or weed control at 200 ppm was ≥ 80%.

For the next test, the system named is Glomerella lacenarium (Colletotrichum lacenarium). The experiment in a line: Fungicidal activity, liquid culture, cucumber preventative (anthracnose). The class given is cell-based. The note with it: 20 ppm in the applied formulation, liquid culture in PDB, inhibition of growth measured photometrically 3 to 4 days after application, compared to untreated control, read-out: disease control. The procedure: Mycelia fragments or conidia suspensions of a fungus prepared either freshly from liquid cultures of the fungus or from cryogenic storage, are directly mixed into nutrient broth. DMSO solutions of the test compound (max. 10 mg/ml) are diluted with 0.025% Tween20 by a factor of 50 and 10 μl of this solution is pipetted into a microtiter plate (96-well format). The nutrient broth containing the fungal spores/mycelia fragments is then added to give an end concentration of the tested compound. The test plates are incubated in the dark at 24° C. and 96% relative humidity. The inhibition of fungal growth is determined photometrically after 2 to 7 days, depending on the pathosystem, and percent antifungal activity relative to the untreated check is calculated.
Conidia of the fungus from cryogenic storage are directly mixed into nutrient broth (PDB—potato dextrose broth). After placing a (DMSO) solution of test compound into a microtiter plate (96-well format), the nutrient broth containing the fungal spores is added. The test plates are incubated at 24° C. and the inhibition of growth is measured photometrically 3 to 4 days after application.
The following compounds at 20 ppm in the applied formulation give at least 80% disease control in this test when compared to untreated control under the same conditions, which show extensive disease development.
On to `O=C(C1CCC1)N(Cc1ccc(-c2noc(C(F)(F)F)n2)s1)C1CC1` [Compound 5.38, N-cyclopropyl-N-[[5-[5-(trifluoromethyl)-1,2,4-oxadiazol-3-yl]-2-thienyl]methyl]cyclobutanecarboxamide], for which the inhibition of growth at 20 ppm was ≥ 80%.

For the compound `CC(C)N(Cc1ccc(-c2noc(C(F)(F)F)n2)s1)C(=O)N1CCCO1` [Compound 5.58, N-isopropyl-N-[[5-[5-(trifluoromethyl)-1,2,4-oxadiazol-3-yl]-2-thienyl]methyl]isoxazolidine-2-carboxamide], the inhibition of growth at 20 ppm was ≥ 80%.

Regarding `CCCCS(=O)(=O)N(Cc1ccc(-c2noc(C(F)(F)F)n2)s1)C1CC1` [Compound 6.34, N-cyclopropyl-N-[[5-[5-(trifluoromethyl)-1,2,4-oxadiazol-3-yl]-2-thienyl]methyl]butane-1-sulfonamide], the inhibition of growth at 20 ppm is ≥ 80%.

Take `CC(C)S(=O)(=O)N(C)Cc1ccc(-c2noc(C(F)(F)F)n2)s1` [Compound 6.23, N-methyl-N-[[5-[5-(trifluoromethyl)-1,2,4-oxadiazol-3-yl]-2-thienyl]methyl]propane-2-sulfonamide]: the inhibition of growth at 20 ppm is ≥ 80%.

`CC(C)N(Cc1ccc(-c2noc(C(F)(F)F)n2)s1)C(=O)C1(C)CC1` [Compound 5.30, N-isopropyl-1-methyl-N-[[5-[5-(trifluoromethyl)-1,2,4-oxadiazol-3-yl]-2-thienyl]methyl]cyclopropanecarboxamide]: the inhibition of growth at 20 ppm was ≥ 80%.

Consider `CCN(Cc1ccc(-c2noc(C(F)(F)F)n2)s1)C(=O)c1ccccc1Cl` [Compound 5.8, 2-chloro-N-ethyl-N-[[5-[5-(trifluoromethyl)-1,2,4-oxadiazol-3-yl]-2-thienyl]methyl]benzamide], for which the inhibition of growth at 20 ppm is ≥ 80%.

As for `O=C(c1ccccc1Cl)N(Cc1ccc(-c2noc(C(F)(F)F)n2)s1)OCC(F)F` [Compound 5.44, 2-chloro-N-(2,2-difluoroethoxy)-N-[[5-(5-(trifluoromethyl)-1,2,4-oxadiazol-3-yl]-2-thienyl]methyl]benzamide], the inhibition of growth at 20 ppm is ≥ 80%.

Take `CC(C)N(Cc1ccc(-c2noc(C(F)(F)F)n2)s1)S(=O)(=O)N(C)C` [Compound 6.4, N-(dimethylsulfamoyl)-N-[[5-[5-(trifluoromethyl)-1,2,4-oxadiazol-3-yl]-2-thienyl]methyl]propan-2-amine]: the inhibition of growth at 20 ppm is ≥ 80%.

`COC(=O)CCS(=O)(=O)N(Cc1ccc(-c2noc(C(F)(F)F)n2)s1)OC` [Compound 1.39, methyl 3-[methoxy-[[5-[5-(trifluoromethyl)-1,2,4-oxadiazol-3-yl]-2-thienyl]methyl]sulfamoyl]propanoate]: the inhibition of growth at 20 ppm is ≥ 80%.

As for `COCCS(=O)(=O)N(Cc1ccc(-c2noc(C(F)(F)F)n2)s1)OC` [Compound 1.40, N,2-dimethoxy-N-[[5-[5-(trifluoromethyl)-1,2,4-oxadiazol-3-yl]-2-thienyl]methyl]ethanesulfonamide], the inhibition of growth at 20 ppm is ≥ 80%.

For the compound `CCN(Cc1ccc(-c2noc(C(F)(F)F)n2)s1)S(=O)(=O)c1ccccc1` [Compound 6.15, N-ethyl-N-[[5-[5-(trifluoromethyl)-1,2,4-oxadiazol-3-yl]-2-thienyl]methyl]benzenesulfonamide], the inhibition of growth at 20 ppm was ≥ 80%.

As for `CC1(C(=O)N(Cc2ccc(-c3noc(C(F)(F)F)n3)s2)OCC(F)F)CC1` [Compound 5.48, N-(2,2-difluoroethoxy)-1-methyl-N-[[5-[5-(trifluoromethyl)-1,2,4-oxadiazol-3-yl]-2-thienyl]methyl]cyclopropanecarboxamide], the inhibition of growth at 20 ppm was ≥ 80%.

For `O=C(c1ccccc1Cl)N(Cc1ccc(-c2noc(C(F)(F)F)n2)s1)C1CC1` [Compound 5.35, 2-chloro-N-cyclopropyl-N-[[5-[5-(trifluoromethyl)-1,2,4-oxadiazol-3-yl]-2-thienyl]methyl]benzamide], the inhibition of growth at 20 ppm was ≥ 80%.

Take `CON(Cc1ccc(-c2noc(C(F)(F)F)n2)s1)S(=O)(=O)N1CCCC1` [Compound 1.36, N-methoxy-N-[[5-[5-(trifluoromethyl)-1,2,4-oxadiazol-3-yl]-2-thienyl]methyl]pyrrolidine-1-sulfonamide]: the inhibition of growth at 20 ppm was ≥ 80%.

`CC1CC1C(=O)N(Cc1ccc(-c2noc(C(F)(F)F)n2)s1)C(C)C` (stereo not shown) [Compound 5.34, N-isopropyl-2-methyl-N-[[5-[5-(trifluoromethyl)-1,2,4-oxadiazol-3-yl]-2-thienyl]methyl]cyclopropanecarboxamide]: the inhibition of growth at 20 ppm is ≥ 80%.

With `CN(C)C(=O)C(=O)N(Cc1ccc(-c2noc(C(F)(F)F)n2)s1)OCC(F)F` [Compound 6.65, N′-(2,2-difluoroethoxy)-N,N-dimethyl-N′-[[5-[5-(trifluoromethyl)-1,2,4-oxadiazol-3-yl]-2-thienyl]methyl]oxamide], the inhibition of growth at 20 ppm was ≥ 80%.

Take `CCOC(=O)N(Cc1ccc(-c2noc(C(F)(F)F)n2)s1)C(C)C` [Compound 4.12, ethyl N-isopropyl-N-[[5-[5-(trifluoromethyl)-1,2,4-oxadiazol-3-yl]-2-thienyl]methyl]carbamate]: the inhibition of growth at 20 ppm is ≥ 80%.

As to `CON(Cc1ccc(-c2noc(C(F)(F)F)n2)s1)S(C)(=O)=O` [Compound 1.31, N-methoxy-N-[[5-[5-(trifluoromethyl)-1,2,4-oxadiazol-3-yl]-2-thienyl]methyl]methanesulfonamide], the inhibition of growth at 20 ppm was ≥ 80%.

Turning to `C=CCS(=O)(=O)N(Cc1ccc(-c2noc(C(F)(F)F)n2)s1)OC` [Compound 1.38, N-methoxy-N-[[5-[5-(trifluoromethyl)-1,2,4-oxadiazol-3-yl]-2-thienyl]methyl]prop-2-ene-1-sulfonamide], the inhibition of growth at 20 ppm was ≥ 80%.

With `CC(C)N(Cc1ccc(-c2noc(C(F)(F)F)n2)s1)C(=O)CC1CC1` [Compound 5.27, 2-cyclopropyl-N-isopropyl-N-[[5-[5-(trifluoromethyl)-1,2,4-oxadiazol-3-yl]-2-thienyl]methyl]acetamide], the inhibition of growth at 20 ppm was ≥ 80%.

On to `COC(C)C(=O)N(Cc1ccc(-c2noc(C(F)(F)F)n2)s1)OCC(F)F` (stereo not shown) [Compound 4.21, N-(2,2-difluoroethoxy)-2-methoxy-N-[[5-[5-(trifluoromethyl)-1,2,4-oxadiazol-3-yl]-2-thienyl]methyl]propanamide], for which the inhibition of growth at 20 ppm was ≥ 80%.

On to `CC(C)C(=O)N(Cc1ccc(-c2noc(C(F)(F)F)n2)s1)OCC(F)F` [Compound 4.20, N-(2,2-difluoroethoxy)-2-methyl-N-[[5-[5-(trifluoromethyl)-1,2,4-oxadiazol-3-yl]-2-thienyl]methyl]propanamide], for which the inhibition of growth at 20 ppm is ≥ 80%.

As for `CON(Cc1ccc(-c2noc(C(F)(F)F)n2)s1)C(=O)n1ccnc1` [Compound 1.3, N-methoxy-N-[[5-[5-(trifluoromethyl)-1,2,4-oxadiazol-3-yl]-2-thienyl]methyl]imidazole-1-carboxamide], the inhibition of growth at 20 ppm is ≥ 80%.

As to `CCN(Cc1ccc(-c2noc(C(F)(F)F)n2)s1)C(=O)C(=O)C(C)(C)C` [Compound 6.41, N-ethyl-3,3-dimethyl-2-oxo-N-[[5-[5-(trifluoromethyl)-1,2,4-oxadiazol-3-yl]-2-thienyl]methyl]butanamide], the inhibition of growth at 20 ppm is ≥ 80%.
